This is an account of results in patent US10973776B1, “Loteprednol etabonate nanoparticles in thermoreversible gels for enhanced therapeutics” (University of South Florida, priority 2015, dated 2021).

Molecules are shown by their SMILES. “Also recorded” adds a separate entry of the source.

Holding throughout (format): cell-based, Human
The test system of series [1] is VEGF secretion in ARPE-19 cells. As to the kind of experiment: VEGF secretion ELISA, LE formulations. The procedure: (§1) Human retinal pigment epithelium, ARPE-19, cells (ATCC # CRL-2302) were grown in 1:1 Dulbecco's Modified Eagle's Medium and Ham's F12 Medium (Mediatech, Inc., Manassas, Va.) with 10% fetal bovine serum and 100 U/mL penicillin/streptomycin (Sigma Aldrich, St. Louis, Mo.). The cultures were maintained in a humid environment at 5% CO2 and 37° C.
ARPE-19 cells were seeded onto 24-well plates at 5×10^4 cells/mL and allowed to grow until confluence. On the day of study, cell culture media were replaced with 1% FBS experimental media and allowed to remain in quiescence for 12 hours. The cellular monolayers were incubated with varying treatment concentrations of free LE solution (1, 10 μM), LE NPs (10 μM), and LE NPs-TR gel (10 μM). Culture media were collected at 12 and 72 hours. Secreted VEGF in collected culture media was quantified by the ELISA method (Human VEGFA ELISA kit, Thermo Scientific, Waltham, Mass.). The cell protein content was assayed using the BCA protein assay kit after lysing the cells and VEGF secretion was normalized to total protein. Samples were read by using the Synergy H4 plate reader (Biotek Industries, Inc., Winooski, Vt.) with absorbance at 450 nm minus absorbance at 550 nm.

For series [2], the system named is ARPE-19 cells. The series is described as follows: MTT cytotoxicity assay of LE DDS. The following applies: 1, 10, 100 μM, 24 hours. The protocol:
as §1
Cytotoxicity was assessed in ARPE-19 cells by the 3-(4,5-dimethylthiazol-2-yl)-2,5-diphenyltetrazolium bromide salt (MTT) assay. Briefly, cells were seeded in 24-well plates at a density of 5×10^4 cells/mL for 24 hours to achieve confluence before treatment. Cells were exposed to free LE solution, LE NPs, and LE NPs-TR gel at varying concentrations (0, 1, 10, 100 μM) for 24 hours after which the MTT assay was performed. Cell culture media were aspirated and 300 μL of MTT reagent solution (1 mg/mL) was added to each well. Cells were incubated at 37° C. and 5% CO2 for 4 hours, after which the MTT reagent solution was aspirated and 500 μL of DMSO was added to each well. Plates were allowed to shake gently for 10 minutes before being read by Synergy H4 plate reader (Biotek Industries, Inc., Winooski, Vt.) at absorbance of 570 nm.
A general note: Tetrazolium dyes change colour on reduction, which living cells bring about.

Series [3] relates to ARPE-19 cells. As to the kind of experiment: MTT cytotoxicity assay of TA DDS. The following applies: 10 μM, 24 h. The procedure: Human retinal pigment epithelium, ARPE-19, cells (ATCC # CRL-2302) were grown in 1:1 Dulbecco's Modified Eagle's Medium and Ham's F12 Medium (Mediated, Inc., Manassas, Va.) with 10% fetal bovine serum and 100 Um′ penicillin/streptomycin (Sigma Aldrich, St. Louis, Mo.). The cultures were maintained in a humid environment at 5% CO2 and 37° C.
The cytotoxicity of the DDS was assessed in ARPE-19 cells by the 3-(4,5-dimethylthiazol-2-yl)-2,5-diphenyltetrazolium bromide salt (MTT) assay. Briefly, cells were seeded in 24-well plates at a density of 5×10^4 cells/ml for 24 h to achieve confluency before treatment. Cells were exposed to free TA, TA NPs, and TA NP-TR gel at varying concentrations (0, 1, 10, 100 μM) for 24 h after which the MTT assay was performed. Cell culture media were aspirated, and […] of MTT reagent solution (1 mg/ml) was added to each well. Cells were incubated at 37° C. and 5% CO2 for 4 h, after which the MTT reagent solution was aspirated and 1 mL of DMSO was added to each well. Plates were allowed to shake gently for 10 min before being read by Synergy H4 plate reader (Biotek Industries, Inc., Winooski, Vt.) at absorbance of 570 nm.

The subject of series [4] is VEGF secretion in ARPE-19 cells. As to the kind of experiment: VEGF secretion ELISA, TA formulations. The following applies: 10 μM, 72 h. The protocol:
Human retinal pigment epithelium, ARPE-19, cells (ATCC # CRL-2302) were grown in 1:1 Dulbecco's Modified Eagle's Medium and Ham's F12 Medium (Mediated, Inc., Manassas, Va.) with 10% fetal bovine serum and 100 Um′ penicillin/streptomycin (Sigma Aldrich, St. Louis, Mo.). The cultures were maintained in a humid environment at 5% CO2 and 37° C. ARPE-19 cells were seeded onto 24-well plates at 5×10^4 cells/ml and allowed to grow until confluence. On the day of study, cell culture media were replaced with 1% FBS experimental media and allowed to remain in quiescence for 12 h. The cellular monolayers were incubated with varying treatment concentrations of free TA solution (1, 10 and 100 μM), TA NPs (10 and 100 μM) and TA NP-TR gel (10 and 100 μM). Culture media were collected at 12 and 72 h. Secreted VEGF in collected culture media was quantified by the ELISA method (Human VEGFA ELISA kit, Thermo Scientific, Waltham, Mass.). The cell protein content was assayed using the BCA protein assay kit after lysing the cells, and VEGF secretion was normalized to total protein. Samples were read using the Synergy H4 plate reader (Biotek Industries, Inc., Winooski, Vt.) with absorbance at 450 nm minus absorbance at 550 nm.
In general terms: An ELISA detects its analyte on a solid surface through an enzyme-linked reagent.

As to `CCOC(=O)O[C@]1(C(=O)OCCl)CC[C@H]2[C@@H]3CCC4=CC(=O)C=C[C@]4(C)[C@H]3[C@@H](O)C[C@@]21C` [free LE, Loteprednol etabonate], the “suppression of VEGF expression vs media control” value in series [1] (1 μM, 12 hours) was “showed reduction in VEGF expression”. Moreover, the “suppression of VEGF secretion vs control” value in series [1] (10 μM, 12 hours) is recorded as “showed reduction in VEGF expression”. Moreover, the “reduction of VEGF expression compared to control” value in series [1] (within 12 hours, p<0.05, concentration not stated) was “significantly reduced VEGF expression”. The entries for the “MTT cytotoxicity vs untreated control cells” value with ARPE-19 cells [2] and with ARPE-19 cells [2] (listed as free LE solution) were “no impact on cell viability” and “no cytotoxicity”, respectively.
With `CC1(C)O[C@@H]2C[C@H]3[C@@H]4CCC5=CC(=O)C=C[C@]5(C)[C@@]4(F)[C@@H](O)C[C@]3(C)[C@]2(C(=O)CO)O1` [free TA, Triamcinolone acetonide], the “MTT cytotoxicity vs untreated control cells” value in the series with ARPE-19 cells [3] is “induced significant cell death; also recorded: cytotoxic”. Besides, the “suppression of VEGF expression” value in series [4] is listed as “no significant effect”.
